Source: US7838521B2, “3-oxa-10-aza-phenanthrenes” (NYCOMED GmbH, priority 2004, dated 2010)

Molecular target: T1, PDE4B2 (Homo sapiens, UniProt Q07343)
T1 construct: made in house; host or cells: SF21 insect cells (baculovirus prepared in SF9 cells, pCR-Bac vector)
Test: Inhibition of PDE4 activity, [3H]cAMP SPA enzyme assay with recombinant PDE4B2
Type: biochemical
Details: recombinant PDE4B2 (GB no. M97515) expressed in SF21 insect cells; 0.5 μM cAMP; 15 min at 37° C.; read-out: PDE4 Inhibition [measured as −logIC50 (mol/l)] (converted)
Method: Method for Measuring Inhibition of PDE4 Activities
The PDE4B2 (GB no. M97515) was a gift of Prof. M. Conti (Stanford University, USA). It was amplified from the original plasmid (pCMV5) via PCR with primers Rb9 (5′-[…]-3′) and Rb10 (5′-[…]-3′) and cloned into the pCR-Bac vector (Invitrogen, Groningen, NL).
The recombinant baculovirus was prepared by means of homologous recombination in SF9 insect cells. The expression plasmids were co-transfected with Bac-N-Blue (Invitrogen, Groningen, NL) or BaculoGold DNA (Pharmingen, Hamburg) using a standard protocol (Pharmingen, Hamburg). Wt virus-free recombinant virus supernatants were selected using plaque assay methods. After that, high-titre virus supernatants were prepared by amplifying 3 times. PDE4B2 was expressed in SF21 cells by infecting 2×10^6 cells/ml with an MOI (multiplicity of infection) between 1 and 10 in serum-free SF900 medium (Life Technologies, Paisley, UK). The cells were cultured at 28° C. for 48-72 hours, after which they were pelleted for 5-10 min at 1000 g and 4° C.
The SF21 insect cells were resuspended, at a concentration of approx. 10^7 cells/ml, in ice-cold (4° C.) homogenization buffer (20 mM Tris, pH 8.2, containing the following additions: 140 mM NaCl, 3.8 mM KCl, 1 mM EGTA, 1 mM MgCl2, 10 mM p-mercaptoethanol, 2 mM benzamidine, 0.4 mM Pefablock, 10 μM leupeptin, 10 μM pepstatin A, 5 μM trypsin inhibitor) and disrupted by ultrasonication. The homogenate was then centrifuged for 10 min at 1000×g and the supernatant was stored at 80° C. until subsequent use (see below). The protein content was determined by the Bradford method (BioRad, Munich) using BSA as the standard.
PDE4B2 activity was inhibited by the said compounds in a modified SPA (scintillation proximity assay) test, supplied by Amersham Biosciences (see procedural instructions “phosphodiesterase [3H]cAMP SPA enzyme assay, code TRKQ 7090”), carried out in 96-well microtitre plates (MTP's). The test volume is 100 μl and contains 20 mM Tris buffer (pH 7.4), 0.1 mg of BSA (bovine serum albumin)/ml, 5 mM Mg^2+, 0.5 μM cAMP (including about 50,000 cpm of [3H]cAMP), 1 μl of the respective substance dilution in DMSO and sufficient recombinant PDE (1000×g supernatant, see above) to ensure that 10-20% of the cAMP is converted under the said experimental conditions. […] After a preincubation of 5 min at 37° C., the reaction is started by adding the substrate (cAMP) and the assays are incubated for a further 15 min; after that, they are stopped by adding SPA beads (50 μl). In accordance with the manufacturer's instructions, the SPA beads had previously been resuspended in water, but were then diluted 1:3 (v/v) in water; the diluted solution also contains 3 mM IBMX to ensure a complete PDE activity stop. After the beads have been sedimented (>30 min), the MTP's are analyzed in commercially available […] detection devices. The corresponding IC50 values of the compounds for the inhibition of PDE activities are determined from the concentration-effect curves by means of non-linear regression.
The inhibitory values determined for the compounds according to the invention follow from the following Table 1, in which the numbers of the compounds correspond to the numbers of the examples.

T1 sequence (Q07343 1-564 isoform Q07343-2): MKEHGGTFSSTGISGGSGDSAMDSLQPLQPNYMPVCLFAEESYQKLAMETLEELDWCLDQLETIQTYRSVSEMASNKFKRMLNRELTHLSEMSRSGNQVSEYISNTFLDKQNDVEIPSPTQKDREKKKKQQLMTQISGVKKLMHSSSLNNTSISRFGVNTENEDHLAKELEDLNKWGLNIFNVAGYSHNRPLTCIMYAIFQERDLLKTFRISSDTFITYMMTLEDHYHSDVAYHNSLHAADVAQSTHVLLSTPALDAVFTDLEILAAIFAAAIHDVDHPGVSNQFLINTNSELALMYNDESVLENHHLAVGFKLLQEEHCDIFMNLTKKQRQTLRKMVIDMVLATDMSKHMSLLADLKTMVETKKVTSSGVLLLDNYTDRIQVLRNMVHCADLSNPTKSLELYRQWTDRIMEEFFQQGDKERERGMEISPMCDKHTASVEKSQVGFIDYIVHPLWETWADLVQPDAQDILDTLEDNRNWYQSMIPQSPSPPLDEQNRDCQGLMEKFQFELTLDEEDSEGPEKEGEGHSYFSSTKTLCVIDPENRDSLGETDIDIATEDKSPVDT

## CCOc1cc2c(cc1OC)C(c1ccc(C(=O)N(C(C)C)C(C)C)cc1)=N[C@@H]1CCOC[C@H]21 [Compound 1, 4-((4aR,10aR)-6-Ethoxy-7-methoxy-1,4,4a,10a-tetrahydro-2H-3-oxa-10-aza-phenanthren-9-yl)-N,N-diisopropyl-benzamide]
  IC50: 2.75 nM

## CCOc1cc2c(cc1OC)C(c1ccc(C(=O)OC)cc1)=N[C@@H]1CCOC[C@H]21 [Compound 2, 4-((4aR,10aR)-6-Ethoxy-7-methoxy-1,4,4a,10a-tetrahydro-2H-3-oxa-10-aza-phenanthren-9-yl)-benzoic acid methyl ester]
  IC50: 20 nM

## CCOc1cc2c(cc1OC)C(c1ccc(C(=O)O)cc1)=N[C@@H]1CCOC[C@H]21 [Compound 3, 4-((4aR,10aR)-6-Ethoxy-7-methoxy-1,4,4a,10a-tetrahydro-2H-3-oxa-10-aza-phenanthren-9-yl)-benzoic acid]
  IC50: 33.9 nM

## CCOc1cc2c(cc1OC)C(c1ccc(C(=O)N3CCOCC3)cc1)=N[C@@H]1CCOC[C@H]21 [Compound 4, 1-[4((4aR,10aR)-6-Ethoxy-7-methoxy-1,4,4a,10a-tetrahydro-2H-3oxa-10-aza-phenanthren-9-yl)-phenyl]-1-morpholin-4-yl-methanone]
  IC50: 39.8 nM

## CCOc1cc2c(cc1OC)C(c1ccc(C(=O)N(C)C)cc1)=N[C@@H]1CCOC[C@H]21 [Compound 5, 1-[4-((4aR,10aR)-6-Ethoxy-7-methoxy-1,4,4a,10a-tetrahydro-2H-3-oxa-10-aza-phenanthren-9-yl)]-N,N-dimethyl-benzamide]
  IC50: 57.5 nM

## CCOc1cc2c(cc1OC)C(c1ccc(C(=O)N3CCN(C)CC3)cc1)=N[C@@H]1CCOC[C@H]21 [Compound 6, 1-[4-((4aR,10aR)-6-Ethoxy-7-methoxy-1,4,4a,10a-tetrahydro-2H-3oxa-10-aza-phenanthren-9-yl)-phenyl-]1-(4-methyl-piperazin-1-yl)-methanone]
  IC50: 20.4 nM
